# Laboratory results reported in PubChem BioAssay AID493116 (Broad Institute, 2011).
# Activity calls are given as the source filed them.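 Rule for the calls: active = falling signal with an AC50 no greater than ten times the top valid dose tested for that sample; inconclusive = flat response with 30 to 70% inhibition, or poor fit; inactive = activity in the rising direction, and the rest.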
# System: not listed separately
# Experiment: inhibitors of AI-2-induced luminescence in V. harveyi MM32, dose response, mechanism study for V. harveyi quorum sensing inhibitors, strain MM32 LuxS-null, dry powder, set 4 (AID 493116)
# Details: V. harveyi MM32 AI-2 bioluminescence, 5 h; at 16 µM (top of the series)
row,Compound,"activity change, negative = inhibition"
1,CCc1ccc(-c2ccc(C(=O)O)n2CC)cc1,1.73% (inactive)
2,CC(=O)Nc1ccccc1NS(=O)(=O)c1cn(C)cn1,-2.94% (inactive)
3,CN(C)C(=O)c1ccccc1NS(=O)(=O)c1cn(C)cn1,0.78% (inactive)
4,Cn1cnc(S(=O)(=O)Nc2ccccc2F)c1,-0.646% (inactive)
5,COc1ccccc1NS(=O)(=O)c1cn(C)cn1,-4.54% (inactive)

# System: V. harveyi MM32 AI-2 bioluminescence, 5 h
# Experiment: as above
# Details: not given
row,Compound,AC50
1,CCc1ccc(-c2ccc(C(=O)O)n2C)cc1,2840 nM
2,Cc1ccccc1NS(=O)(=O)c1cn(C)cn1,> 16000 nM (inactive)
3,O=S(=O)(Nc1ccccn1)c1ccc(Oc2ccccc2)cc1,2250 nM
4,Cn1cnc(S(=O)(=O)Nc2ccccc2Cl)c1,> 16000 nM (inactive)
5,Cn1cnc(S(=O)(=O)Nc2ccc(OC(F)(F)F)cc2)c1,2390 nM
6,O=C1C=C/C(=C/Br)O1,2300 nM
7,C=Cn1c(C(=O)O)ccc1-c1ccc(OC)cc1,6140 nM
8,C=Cn1c(C(=O)O)ccc1-c1ccc(CC)cc1,2340 nM
9,O=S(=O)(Nc1cccnc1)c1ccc(Oc2ccccc2)cc1,538 nM
